What was measured:
erbB2 tyrosine kinase = biological target: T1, erbB2 tyrosine kinase (Homo sapiens, UniProt P04626); assay: Protein tyrosine kinase phosphorylation assay, Test (a), erbB2; type: biochemical; settings: recombinant intracellular fragment, ATP at Km; read-out: IC50 Test (a): Inhibition of erbB2 tyrosine kinase protein phosphorylation
T1 construct: Recombinant intracellular fragments of EGFR, erbB2 and erbB4; made in house; host or cells: baculovirus/Sf21 insect cells (cleared lysate used)
Procedure: (§1) This test measures the ability of a test compound to inhibit the phosphorylation of a tyrosine containing polypeptide substrate by EGFR, erbB2 and erbB4 tyrosine kinase enzyme.
(§2) Recombinant intracellular fragments of EGFR, erbB2 and erbB4 (accession numbers X00588, X03363 and L07868 respectively) were cloned and expressed in the baculovirus/Sf21 system. […]
(§3) Constitutive kinase activity of these recombinant proteins was determined by their ability to phosphorylate a synthetic peptide (made up of a random co-polymer of Glutamic Acid, Alanine and Tyrosine in the ratio of 6:3:1). […]
(§4) The immobilised phospho-peptide product of the reaction was detected by immunological methods. […] After further washing, HRP activity in each well of the plate was measured colorimetrically using 22′-Azino-di-[3-ethylbenzthiazoline sulfonate (6)]diammonium salt crystals (ABTS™ from Roche) as a substrate.
(§5) Quantification of colour development and thus enzyme activity was achieved by the measurement of absorbance at 405 nm on a Molecular Devices ThermoMax microplate reader. Kinase inhibition for a given compound was expressed as an IC50 value. […] The range of phosphorylation was calculated from the positive (vehicle plus ATP) and negative (vehicle minus ATP) control values.

erbB2 = biological target: T2, erbB2 (Homo sapiens, UniProt P04626); assay: Clone 24 phospho-erbB2 cell assay, Test (c); type: cell-based; settings: MCF7 derived cell line (Clone 24) overexpressing erbB2, 4 hours; read-out: IC50 Test (c): Inhibition of erbB2 tyrosine kinase protein phosphorylation
T2 construct: a cell line that overexpresses full length wild type erbB2 protein; expressed in transfected cells; host or cells: MCF7 (breast carcinoma) derived 'Clone 24' cells
Procedure: This immunofluorescence end point assay measures the ability of a test compound to inhibit the phosphorylation of erbB2 in a MCF7 (breast carcinoma) derived cell line which was generated by transfecting MCF7 cells with the full length erbB2 gene using standard methods to give a cell line that overexpresses full length wild type erbB2 protein (hereinafter ‘Clone 24’ cells).
Clone 24 cells were cultured in Growth Medium (phenol red free Dulbecco's modified Eagle's medium (DMEM) containing 10% foetal bovine serum, 2 mM glutamine and 1.2 mg/ml G418) in a 7.5% CO2 air incubator at 37° C. […] Cell density was measured using a haemocytometer and viability was calculated using Trypan Blue solution before being further diluted in Growth Medium and seeded at a density of 1×10^4 cells per well (in 100 μl) into clear bottomed 96 well plates (Packard, No. 6005182). […]
Immunostaining was performed at room temperature. […] Plates were analysed within six hours of completing the immunostaining.
The Fluorescence signal is each well was measured using an Acumen Explorer Instrument (Acumen Bioscience Ltd.), a plate reader that can be used to rapidly quantitate features of images generated by laser-scanning. […]

EGFR tyrosine kinase = biological target: T3, EGFR tyrosine kinase (Homo sapiens, UniProt P00533); assay: Protein tyrosine kinase phosphorylation assay, Test (a), EGFR; type: biochemical; settings: recombinant intracellular fragment, ATP at Km; read-out: IC50 Test (a): Inhibition of EGFR tyrosine kinase protein phosphorylation
T3 construct: Recombinant intracellular fragments of EGFR, erbB2 and erbB4; made in house; host or cells: baculovirus/Sf21 insect cells (cleared lysate used)
Procedure: as §1, §2, §3, §4, §5

T1 sequence (P04626 676-1255 limits assumed): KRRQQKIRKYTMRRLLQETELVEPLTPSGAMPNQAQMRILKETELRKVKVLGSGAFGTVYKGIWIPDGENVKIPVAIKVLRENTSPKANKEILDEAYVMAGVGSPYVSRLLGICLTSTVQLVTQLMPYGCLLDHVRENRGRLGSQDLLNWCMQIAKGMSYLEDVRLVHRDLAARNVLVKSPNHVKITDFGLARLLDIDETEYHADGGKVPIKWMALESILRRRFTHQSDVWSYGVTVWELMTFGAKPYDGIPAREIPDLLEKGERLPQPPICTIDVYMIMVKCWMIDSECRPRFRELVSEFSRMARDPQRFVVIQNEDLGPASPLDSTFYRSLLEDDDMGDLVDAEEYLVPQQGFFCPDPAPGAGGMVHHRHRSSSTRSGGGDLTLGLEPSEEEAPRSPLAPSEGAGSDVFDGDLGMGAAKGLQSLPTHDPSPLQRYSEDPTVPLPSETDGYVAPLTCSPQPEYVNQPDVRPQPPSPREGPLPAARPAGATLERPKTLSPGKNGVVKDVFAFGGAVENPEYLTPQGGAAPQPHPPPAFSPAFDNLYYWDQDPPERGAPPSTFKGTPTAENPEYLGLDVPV
T3 sequence (P00533 669-1210 limits assumed): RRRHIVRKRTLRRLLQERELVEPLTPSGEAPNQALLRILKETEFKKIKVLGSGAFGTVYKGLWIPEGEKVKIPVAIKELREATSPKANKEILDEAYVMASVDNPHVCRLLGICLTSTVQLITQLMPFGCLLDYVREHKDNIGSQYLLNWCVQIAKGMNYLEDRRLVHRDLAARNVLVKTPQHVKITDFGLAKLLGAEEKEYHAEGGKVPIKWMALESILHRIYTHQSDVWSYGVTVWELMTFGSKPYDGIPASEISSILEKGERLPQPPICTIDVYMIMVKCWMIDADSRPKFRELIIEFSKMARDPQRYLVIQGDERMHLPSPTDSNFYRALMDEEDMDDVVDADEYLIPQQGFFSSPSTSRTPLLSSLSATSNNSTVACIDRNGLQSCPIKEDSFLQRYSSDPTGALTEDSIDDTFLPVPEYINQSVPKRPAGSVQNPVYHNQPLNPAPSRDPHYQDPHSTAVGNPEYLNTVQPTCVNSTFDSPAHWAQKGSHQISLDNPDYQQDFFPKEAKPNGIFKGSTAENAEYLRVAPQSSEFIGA
T2 sequence (P04626 23-1255): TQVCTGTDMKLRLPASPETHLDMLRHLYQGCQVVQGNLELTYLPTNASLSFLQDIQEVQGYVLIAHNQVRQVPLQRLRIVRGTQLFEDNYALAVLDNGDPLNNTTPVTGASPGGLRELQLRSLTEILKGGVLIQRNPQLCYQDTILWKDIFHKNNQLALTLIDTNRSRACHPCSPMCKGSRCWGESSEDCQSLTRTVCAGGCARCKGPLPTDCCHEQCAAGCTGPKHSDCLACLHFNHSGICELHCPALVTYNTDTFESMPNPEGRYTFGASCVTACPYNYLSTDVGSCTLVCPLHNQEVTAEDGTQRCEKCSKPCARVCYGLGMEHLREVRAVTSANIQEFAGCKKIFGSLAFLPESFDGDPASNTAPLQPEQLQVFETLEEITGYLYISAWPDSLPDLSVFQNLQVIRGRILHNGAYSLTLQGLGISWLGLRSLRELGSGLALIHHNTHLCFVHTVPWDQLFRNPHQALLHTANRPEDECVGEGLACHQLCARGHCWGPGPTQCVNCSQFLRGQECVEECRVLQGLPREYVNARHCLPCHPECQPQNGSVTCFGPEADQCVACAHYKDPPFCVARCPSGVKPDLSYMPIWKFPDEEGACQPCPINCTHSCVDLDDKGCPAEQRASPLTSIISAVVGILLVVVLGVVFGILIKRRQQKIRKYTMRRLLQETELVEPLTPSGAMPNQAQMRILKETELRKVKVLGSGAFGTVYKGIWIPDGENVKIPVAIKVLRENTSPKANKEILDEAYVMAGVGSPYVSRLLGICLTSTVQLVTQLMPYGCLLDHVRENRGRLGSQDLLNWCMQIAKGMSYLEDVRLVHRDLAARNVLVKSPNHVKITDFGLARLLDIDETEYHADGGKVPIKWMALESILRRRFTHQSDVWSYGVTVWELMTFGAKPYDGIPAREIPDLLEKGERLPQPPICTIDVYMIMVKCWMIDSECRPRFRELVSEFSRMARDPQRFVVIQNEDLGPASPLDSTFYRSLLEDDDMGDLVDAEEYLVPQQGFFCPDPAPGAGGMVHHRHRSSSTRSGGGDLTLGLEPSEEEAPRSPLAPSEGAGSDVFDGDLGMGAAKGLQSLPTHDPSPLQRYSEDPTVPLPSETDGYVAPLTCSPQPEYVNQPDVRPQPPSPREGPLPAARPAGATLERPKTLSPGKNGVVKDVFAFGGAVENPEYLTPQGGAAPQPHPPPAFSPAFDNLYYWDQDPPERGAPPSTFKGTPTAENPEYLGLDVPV

IC50 (erbB2 tyrosine kinase) | IC50 (erbB2) | IC50 (EGFR tyrosine kinase) | SMILES
6 nM | 380 nM | 310 nM | O=C(CO)N1CCC[C@@H]1COc1cccc2ncnc(Nc3ccc4c(cnn4Cc4ccccn4)c3)c12 [Example 1, 2-Oxo-2-((2R)-2-{[(4-{[1-(pyridin-2-ylmethyl)-1H-indazol-5-yl]amino}quinazolin-5-yl)oxy]methyl}pyrrolidin-1-yl)ethanol]
5 nM | 44 nM | 61 nM | O=C(CO)N1CCCC[C@@H]1COc1cccc2ncnc(Nc3ccc4c(cnn4Cc4ccccn4)c3)c12 [Example 4, 2-Oxo-2-((2R)-2-{[(4-{[1-(pyridin-2-ylmethyl)-1H-indazol-5-yl]amino}quinazolin-5-yl)oxy]methyl}piperidin-1-yl)ethanol]
